For orientation: IC50 means the concentration needed to halve the response being measured. A low value points to greater potency.

*1 amine or outer side, *2 acyl side, *3 side chain or, on linkers, in order; H or OH if unused. Where a SMILES comes first, the peptide text is derived from it. Bridges are numbered along the chain shown (N, C = ends). [ ]: non-standard residue; d: D form. 2Nal = N[C@@H](Cc1ccc2ccccc2c1)C(=O)O; AEF = NCCOc1ccc(C[C@H](N)C(=O)O)cc1; X1 = O=C(Cc1ccc(CN[*:1])cc1)[*:2]; 3Pal = N[C@@H](Cc1cccnc1)C(=O)O; αMeL = CC(C)C[C@](C)(N)C(=O)O; Dab = NCC[C@H](N)C(=O)O

Data set [1] has as its system porcine pepsin (P7125, Sigma Aldrich). The data set is described as follows: SGF: sodium chloride, HCl, pH 1.2, with porcine pepsin (3.2 g/L). The conditions noted are these: 37 °C, up to 4 hours.
For the next data set, the target named is T1, human IL-23R (Homo sapiens, UniProt Q5VWK5).
T1 sequence (Q5VWK5 22-629): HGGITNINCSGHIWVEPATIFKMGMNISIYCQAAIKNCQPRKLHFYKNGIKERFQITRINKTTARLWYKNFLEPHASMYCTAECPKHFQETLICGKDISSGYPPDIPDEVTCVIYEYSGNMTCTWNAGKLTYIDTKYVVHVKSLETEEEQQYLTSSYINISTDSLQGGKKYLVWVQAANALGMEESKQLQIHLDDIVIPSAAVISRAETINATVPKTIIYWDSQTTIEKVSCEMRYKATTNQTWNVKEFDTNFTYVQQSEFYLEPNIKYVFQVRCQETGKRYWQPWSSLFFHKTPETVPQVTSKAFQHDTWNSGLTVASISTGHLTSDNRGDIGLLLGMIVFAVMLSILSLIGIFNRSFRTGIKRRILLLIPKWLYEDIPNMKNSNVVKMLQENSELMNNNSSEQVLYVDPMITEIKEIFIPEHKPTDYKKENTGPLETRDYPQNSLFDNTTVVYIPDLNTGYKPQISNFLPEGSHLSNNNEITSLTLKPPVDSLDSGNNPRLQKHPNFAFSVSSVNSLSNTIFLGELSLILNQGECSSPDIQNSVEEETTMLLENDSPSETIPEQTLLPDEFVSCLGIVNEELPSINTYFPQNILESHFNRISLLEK
The data set is described as follows: biochemical. Summed up: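 BRET displacement of a TAMRA-labelled reference compound from N-terminal Nanoluc-IL-23R fusion protein in membranes from stably transfected HEK293 cells. Incubation 2 h at room temperature, then Nanoluc substrate was added and the TAMRA/Nanoluc ratio read. IC50 and maximal displacement came from 4-parameter logistic fits.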

Data set [2] can be described thus: Peptide stability in simulated intestinal fluid (SIF). The conditions noted are these: pig, simulated intestinal fluid (SIF) with porcine pancreatin, 37 °C, pH 6.8, porcine pancreatin 10 g/L, 10 µM; for remaining at 4 h, 10 µM: read-out: SIF (% remaining 4 h). It is filed as in vitro ADME. Summed up: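 Peptides were incubated at 37 °C with gentle shaking in pH 6.8 potassium phosphate SIF containing porcine pancreatin (10 g/L). Supernatants were analysed by LC-HRMS. Percent remaining at each timepoint, including 4 h, was calculated relative to time zero from absolute peak areas.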

Data set [3] in a line: Peptide stability in simulated gastric fluid (SGF). It is filed as in vitro ADME. The conditions noted are these: pig, simulated gastric fluid (SGF) with porcine pepsin, 37 °C, pH 1.2, porcine pepsin 3.2 g/L. On the procedure:
SGF was prepared by dissolving sodium chloride (0.2 g) in 50 mL of water. A volume of 0.7 mL of 10 M HCl was added to adjust the pH of the solution to 1.2 and the volume made up to 100 mL with water. […] SIF was prepared by dissolving monobasic potassium phosphate (0.68 g) in 50 mL of water and adjusting the pH to 6.8 with 1 M NaOH. The volume was subsequently made up to 100 mL with water. 200 mg porcine pancreatin (P1625, Sigma Aldrich) was gently dissolved into 20 mL preheated (37 °C) solution (10 g/L) immediately prior to the incubation.
The incubation was performed at 37 °C with gentle shaking. […] After the last timepoint, the sampling plate was mixed for 10 min on a shaking table and centrifuged 10 min at 2200 g. 70 µL resulting supernatant was diluted with 150 µL water, mixed and centrifugated before analysis by liquid chromatography high resolution mass spectrometry. […] Percent remaining at each timepoint was calculated relative to timepoint zero based on absolute peak areas.
Compounds with a SGF stability (after 4 h) above 70% are considered highly SGF stable. […] Table 3-4: SGF data

Turning to “[4-Aminomethyl-phenylacetyl](1c)*SE(2c)WQ[Dab](2c)[Y(2-aminoethoxy)][2-Nal][2-Me-Leu]E(1c)[{d}S][3-(3-Pyridyl)-Ala]”, in data set [1], the not cleaved came to 91% remaining after 4 h.

For “[4-Aminomethyl-phenylacetyl](1c)*SE(2c)WQ[Dab](2c)[Y(2-aminoethoxy)][2-Nal][2-Me-Leu]E(1c)[Dab][N-Me-3-(3-Pyridyl)-Ala]-[NH2]”, the not cleaved in data set [1] is 103% remaining after 4 h.

On to “[Ac]-[Abu](16i)QTWQC(16i)[Y(2-aminoethoxy)]W[2-Me-Lys]ENG-[NH2]”, for which, in data set [1], the not cleaved was 100% remaining after 4 h.

In turn, “[4-Aminomethyl-phenylacetyl](1c)*SE(2c)WQ[Dab](2c)[Y(2-aminoethoxy)][2-Nal][2-Me-Leu]E(1c)[Dab]H[3-(3-Pyridyl)-Ala]-[NH2]” returned a not cleaved in data set [1] of 93% remaining after 4 h.

The molecule “[4-Aminomethyl-phenylacetyl](1c)*SE(2c)WQ[Dab](2c)[Y(2-aminoethoxy)][2-Nal][2-Me-Leu]E(1c)H[3-(3-Pyridyl)-Ala]” yielded a not cleaved in data set [1] of 95% remaining after 4 h.

With “[4-Aminomethyl-phenylacetyl](1c)*SE(2c)W[Q(pyrrolidin)][Dab](2c)[Y(2-aminoethoxy)][2-Nal][2-Me-Leu]E(1c)[Dab][3-(3-Pyridyl)-Ala]”, in data set [1], the not cleaved stood at 96% remaining after 4 h.

Take “[4-Aminomethyl-phenylacetyl](1c)*SE(2c)WQ[Dab](2c)[Y(2-aminoethoxy)][2-Nal][2-Me-Leu]E(1c)[Ser(OMe)][3-(3-Pyridyl)-Ala]”: the not cleaved in data set [1] is 102% remaining after 4 h.

In data set [1], “[4-Aminomethyl-phenylacetyl](1c)*SE(2c)W[K(Ac)][Dab](2c)[Y(2-aminoethoxy)][2-Nal][2-Me-Leu]E(1c)[Dab][3-(3-Pyridyl)-Ala]” registered a not cleaved of 90% remaining after 4 h.

With “[4-Aminomethyl-phenylacetyl](1c)*SE(2c)WQ[Dab](2c)[Y(2-aminoethoxy)][2-Nal][2-Me-Leu]E(1c)Q[3-(3-Pyridyl)-Ala]”, in data set [1], the not cleaved is 93% remaining after 4 h.

Regarding “[4-Aminomethyl-phenylacetyl](1c)*SE(2c)WQ[Dab](2c)[Y(2-aminoethoxy)][2-Nal][2-Me-Leu]E(1c)[Dab]-[NH-(4-(pyridin-3-yl)butanyl)]”, in data set [1], the not cleaved is 108% remaining after 4 h.

H-GC(1a)TC(2a)WEC(2a)WWLC(1a)S-[NH2]: the not cleaved in data set [1] is given as 94% remaining after 4 h.

`CNC(=O)[C@H](Cc1cccnc1)NC(=O)[C@H](CCN)NC(=O)[C@@H]1CCC(=O)NCc2ccc(cc2)CC(=O)N[C@@H](C)C(=O)N[C@H]2CCC(=O)NCC[C@H](NC(=O)[C@H](CCC(N)=O)NC(=O)[C@H](Cc3c[nH]c4ccccc34)NC2=O)C(=O)N[C@@H](Cc2c[nH]c3ncccc23)C(=O)N[C@@H](Cc2ccc3ccccc3c2)C(=O)NC(C)(C)C(=O)N1` [Compound 43, [4-Aminomethyl-phenylacetyl](1c)*AE(2c)WQ[Dab](2c)[7-AzaTrp][2-Nal][Aib]E(1c)[Dab][3-(3-Pyridyl)-Ala]-[NHMe]]: on human IL-23R, the “% displacement (hIL-23R binding)” value was found to be 101% and the IC50 amounted to 0.048 nM. The amount remaining at 4 h, 10 µM in data set [2] is 92%. The fraction remaining at 4 h, 10 µM in data set [3] was 98%.

Take `CCCC[C@H](NC(=O)[C@@H]1CCC(=O)NCc2ccc(cc2)CC(=O)N[C@@H](CO)C(=O)N[C@H]2CCC(=O)NCC[C@H](NC(=O)[C@H](CCC(N)=O)NC(=O)[C@H](Cc3c[nH]c4ccccc34)NC2=O)C(=O)N[C@@H](Cc2ccc(OCCN)cc2)C(=O)N[C@@H](Cc2ccc3ccccc3c2)C(=O)N[C@@](C)(CC(C)C)C(=O)N1)C(=O)N[C@@H](Cc1cccnc1)C(=O)NC` [Compound 32, [4-Aminomethyl-phenylacetyl](1c)*SE(2c)WQ[Dab](2c)[Y(2-aminoethoxy)][2-Nal][2-Me-Leu]E(1c)[Nle][3-(3-Pyridyl)-Ala]-[NHMe]]: on human IL-23R, the “% displacement (hIL-23R binding)” value is reported as 98% and the IC50 was 0.027 nM. Further, the fraction remaining at 4 h, 10 µM in data set [2] was 65%. In addition, in data set [3], the share remaining at 1 h, 10 µM is 96%.

With `CNC(=O)[C@H](Cc1cccnc1)NC(=O)[C@H](Cc1c[nH]cn1)NC(=O)[C@@H]1CCC(=O)NCc2ccc(cc2)CC(=O)N[C@@H](CO)C(=O)N[C@H]2CCC(=O)NCC[C@H](NC(=O)[C@H](CCC(N)=O)NC(=O)[C@H](Cc3c[nH]c4ccccc34)NC2=O)C(=O)N[C@@H](Cc2ccc(OCCN)cc2)C(=O)N[C@@H](Cc2ccc3ccccc3c2)C(=O)N[C@@](C)(CC(C)C)C(=O)N1` [Compound 34, [4-Aminomethyl-phenylacetyl](1c)*SE(2c)WQ[Dab](2c)[Y(2-aminoethoxy)][2-Nal][2-Me-Leu]E(1c)H[3-(3-Pyridyl)-Ala]-[NHMe]] ([X1]SEWQ[Dab][AEF][2Nal][αMeL]EH[3Pal]-NHMe; lactam 3-6, N-10), on human IL-23R, the “% displacement (hIL-23R binding)” value turned out to be 90% and the IC50 was determined as 0.013 nM. For the same molecule, in data set [2], the amount remaining at 1 h, 10 µM was 87% and the amount remaining at 4 h, 10 µM was 56%. Further, in data set [3], the share remaining at 1 h, 10 µM is 96%.

On to `CNC(=O)[C@H](Cc1cccnc1)NC(=O)[C@H](CCC(N)=O)NC(=O)[C@@H]1CCC(=O)NCc2ccc(cc2)CC(=O)N[C@@H](CO)C(=O)N[C@H]2CCC(=O)NCC[C@H](NC(=O)[C@H](CCC(N)=O)NC(=O)[C@H](Cc3c[nH]c4ccccc34)NC2=O)C(=O)N[C@@H](Cc2ccc(OCCN)cc2)C(=O)N[C@@H](Cc2ccc3ccccc3c2)C(=O)N[C@@](C)(CC(C)C)C(=O)N1` [Compound 33, [4-Aminomethyl-phenylacetyl](1c)*SE(2c)WQ[Dab](2c)[Y(2-aminoethoxy)][2-Nal][2-Me-Leu]E(1c)Q[3-(3-Pyridyl)-Ala]-[NHMe]] ([X1]SEWQ[Dab][AEF][2Nal][αMeL]EQ[3Pal]-NHMe; lactam 3-6, N-10), for which the IC50 at human IL-23R came out at 0.014 nM. In addition, the Emax at human IL-23R (read-out: % displacement (hIL-23R binding)) turned out to be 92%. Besides, the values for the share remaining at 4 h, 10 µM in data set [2] and in data set [3] were 69% and 93%, respectively.

In the case of `CNC(=O)[C@H](Cc1cccnc1)NC(=O)C1(NC(=O)[C@@H]2CCC(=O)NCc3ccc(cc3)CC(=O)N[C@@H](CO)C(=O)N[C@H]3CCC(=O)NCC[C@H](NC(=O)[C@H](CCC(N)=O)NC(=O)[C@H](Cc4c[nH]c5ccccc45)NC3=O)C(=O)N[C@@H](Cc3ccc(OCCN)cc3)C(=O)N[C@@H](Cc3ccc4ccccc4c3)C(=O)N[C@@](C)(CC(C)C)C(=O)N2)CCOCC1` [Compound 35, [4-Aminomethyl-phenylacetyl](1c)*SE(2c)WQ[Dab](2c)[Y(2-aminoethoxy)][2-Nal][2-Me-Leu]E(1c)[THP][3-(3-Pyridyl)-Ala]-[NHMe]], the “% displacement (hIL-23R binding)” value at human IL-23R is on record as 101%. For the same molecule, in data set [2], the amount remaining at 1 h, 10 µM was 110%. Further, in data set [3], the share remaining at 4 h, 10 µM was 94%.

On to `CNC(=O)[C@H](Cc1cccnc1)NC(=O)[C@H](CO)NC(=O)[C@@H]1CCC(=O)NCc2ccc(cc2)CC(=O)N[C@@H](C)C(=O)N[C@H]2CCC(=O)NCC[C@H](NC(=O)[C@H](CCC(N)=O)NC(=O)[C@H](Cc3c[nH]c4ccccc34)NC2=O)C(=O)N[C@@H](Cc2ccc(OCCN)cc2)C(=O)N[C@@H](Cc2ccc3ccccc3c2)C(=O)N[C@@](C)(CC(C)C)C(=O)N1` [Compound 40, [4-Aminomethyl-phenylacetyl](1c)*AE(2c)WQ[Dab](2c)[Y(2-aminoethoxy)][2-Nal][2-Me-Leu]E(1c)S[3-(3-Pyridyl)-Ala]-[NHMe]] ([X1]AEWQ[Dab][AEF][2Nal][αMeL]ES[3Pal]-NHMe; lactam 3-6, N-10), for which, on human IL-23R, the “% displacement (hIL-23R binding)” value amounted to 100% and the IC50 stood at 0.019 nM. For the same molecule, the share remaining at 4 h, 10 µM in data set [2] was 80%. The fraction remaining at 1 h, 10 µM in data set [3] was 89%.

Source of the values: patent EP4471049A1 (Zealand Pharma A/S, priority 2023, dated 2024).
